{
  "source": "patent US20080009418A1",
  "about": "“Selective Inhibitors” (Alchemia LTD., priority 2004, published 2008)",
  "key": {"[1]": {"target": "T1, Human δ-opioid (DOP) (Homo sapiens, UniProt P41143)", "T1 construct": "purchased Perkin Elmer Biosignal", "T1 sequence (P41143 whole entry)": "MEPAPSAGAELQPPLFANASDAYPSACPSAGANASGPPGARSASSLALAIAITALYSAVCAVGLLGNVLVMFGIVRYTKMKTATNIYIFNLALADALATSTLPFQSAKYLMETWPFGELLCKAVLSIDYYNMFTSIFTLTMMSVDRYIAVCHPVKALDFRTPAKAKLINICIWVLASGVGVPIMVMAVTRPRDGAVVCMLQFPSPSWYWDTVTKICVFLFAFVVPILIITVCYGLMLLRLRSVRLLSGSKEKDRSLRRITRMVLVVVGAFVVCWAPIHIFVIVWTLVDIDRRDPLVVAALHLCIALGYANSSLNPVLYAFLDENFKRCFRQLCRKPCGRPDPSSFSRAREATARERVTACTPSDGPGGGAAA", "assay": "Radioligand binding, human δ-opioid (DOP) membranes, FlashPlate, [3H]-Bremazocine", "settings": "compound at 10 μM, [3H]-Bremazocine", "how_it_was_run": "(§1)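 Cloned human receptor membranes were coated onto FlashPlate wells and incubated with radioligand and compound (added from a 0.5 mM DMSO daughter plate) for 1 hour at room temperature in the dark. Scintillation counting gave percent inhibition, with DMSO defining total and reference ligand defining non-specific binding.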"}, "[2]": {"target": "T2, Human opioid (ORL1) (Homo sapiens, UniProt P41146)", "T2 construct": "purchased Perkin Elmer Biosignal", "T2 sequence (P41146 whole entry)": "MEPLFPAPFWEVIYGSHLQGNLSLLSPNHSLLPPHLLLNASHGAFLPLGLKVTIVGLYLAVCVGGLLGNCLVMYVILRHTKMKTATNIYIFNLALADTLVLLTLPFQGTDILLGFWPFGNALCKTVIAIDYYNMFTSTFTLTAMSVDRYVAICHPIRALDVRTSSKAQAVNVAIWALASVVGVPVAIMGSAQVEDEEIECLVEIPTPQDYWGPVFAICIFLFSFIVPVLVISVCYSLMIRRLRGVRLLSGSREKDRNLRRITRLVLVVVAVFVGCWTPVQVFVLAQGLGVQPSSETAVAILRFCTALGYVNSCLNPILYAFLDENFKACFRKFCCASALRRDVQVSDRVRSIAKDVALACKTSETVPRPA", "assay": "Radioligand binding, human opioid ORL1 membranes, FlashPlate, [125I]-Nociceptin", "settings": "compound at 10 μM, [125I]-Nociceptin", "how_it_was_run": "as §1"}, "[3]": {"target": "T3, Human melanin-concentrating hormone (MCH1) (Homo sapiens, UniProt Q99705)", "T3 construct": "purchased Perkin Elmer Biosignal", "T3 sequence (Q99705 whole entry)": "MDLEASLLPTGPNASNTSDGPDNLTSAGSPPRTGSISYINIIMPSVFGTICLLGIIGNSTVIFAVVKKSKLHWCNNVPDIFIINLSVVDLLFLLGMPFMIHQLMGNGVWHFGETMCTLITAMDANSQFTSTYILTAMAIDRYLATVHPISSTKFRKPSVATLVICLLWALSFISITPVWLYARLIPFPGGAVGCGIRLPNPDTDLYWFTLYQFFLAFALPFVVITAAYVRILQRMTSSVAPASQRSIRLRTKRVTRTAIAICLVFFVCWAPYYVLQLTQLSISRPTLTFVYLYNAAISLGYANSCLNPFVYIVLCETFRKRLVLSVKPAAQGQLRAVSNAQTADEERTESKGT", "assay": "Radioligand binding, human melanin-concentrating hormone MCH1 membranes, FlashPlate, [125I]-S36057", "settings": "compound at 10 μM", "how_it_was_run": "as §1"}, "[4]": {"target": "T4, Human κ-Opioid (KOP) (Homo sapiens, UniProt P41145)", "T4 construct": "purchased Perkin Elmer Biosignal", "T4 sequence (P41145 whole entry)": "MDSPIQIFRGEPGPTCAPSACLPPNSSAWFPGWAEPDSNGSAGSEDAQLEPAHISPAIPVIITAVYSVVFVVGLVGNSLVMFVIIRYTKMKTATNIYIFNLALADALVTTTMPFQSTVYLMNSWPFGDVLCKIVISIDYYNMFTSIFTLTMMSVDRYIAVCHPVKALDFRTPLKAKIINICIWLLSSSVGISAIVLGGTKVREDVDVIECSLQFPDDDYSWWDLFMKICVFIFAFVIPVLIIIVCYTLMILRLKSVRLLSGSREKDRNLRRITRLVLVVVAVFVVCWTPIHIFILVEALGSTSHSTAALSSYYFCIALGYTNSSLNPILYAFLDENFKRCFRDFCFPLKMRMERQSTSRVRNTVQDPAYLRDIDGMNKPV", "assay": "Radioligand binding, human κ-opioid (KOP) membranes, filtration, [3H]-Diprenorphine", "settings": "compound at 10 μM, [3H]-Diprenorphine", "how_it_was_run": "(§2)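 Membranes from cloned human receptors were incubated with compound and radioligand for 1 hour at room temperature. Bound ligand was collected on 0.3% PEI-soaked filters, washed with cold 50 mM Tris-HCl pH 7.4, and counted by scintillation. Percent inhibition was computed against DMSO totals and reference-ligand nonspecific wells.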"}, "[5]": {"target": "T5, Human Melanocortin (MC4) (Homo sapiens, UniProt P32245)", "T5 construct": "purchased Perkin Elmer Biosignal", "T5 sequence (P32245 whole entry)": "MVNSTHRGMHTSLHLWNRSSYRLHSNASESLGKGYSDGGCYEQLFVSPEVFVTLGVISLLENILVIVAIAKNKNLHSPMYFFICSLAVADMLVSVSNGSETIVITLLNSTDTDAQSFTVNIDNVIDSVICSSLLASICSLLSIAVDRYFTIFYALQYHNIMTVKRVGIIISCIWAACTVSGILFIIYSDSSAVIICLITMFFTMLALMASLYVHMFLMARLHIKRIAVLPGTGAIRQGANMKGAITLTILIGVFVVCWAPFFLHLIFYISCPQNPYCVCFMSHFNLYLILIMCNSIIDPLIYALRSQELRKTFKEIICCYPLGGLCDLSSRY", "assay": "Radioligand binding, human melanocortin MC4 membranes, FlashPlate, [125I]-NDP-αMSH", "settings": "compound at 10 μM, [125I]-NDP-αMSH", "how_it_was_run": "as §1"}, "[6]": {"target": "T6, Mouse urotensin (mUR2) (Mus musculus, UniProt Q8VIH9)", "T6 construct": "purchased Perkin Elmer Biosignal", "T6 sequence (Q8VIH9 1-385)": "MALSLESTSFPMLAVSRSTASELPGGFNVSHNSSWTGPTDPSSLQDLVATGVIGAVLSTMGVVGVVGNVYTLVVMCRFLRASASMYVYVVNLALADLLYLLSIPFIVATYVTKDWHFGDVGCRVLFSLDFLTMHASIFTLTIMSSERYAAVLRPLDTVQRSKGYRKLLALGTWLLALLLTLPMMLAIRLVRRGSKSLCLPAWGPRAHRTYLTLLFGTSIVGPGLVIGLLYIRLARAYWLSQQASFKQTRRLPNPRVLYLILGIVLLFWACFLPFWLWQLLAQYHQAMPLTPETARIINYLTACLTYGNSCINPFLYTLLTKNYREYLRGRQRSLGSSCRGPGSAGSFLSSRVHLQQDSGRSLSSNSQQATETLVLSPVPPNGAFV", "assay": "Radioligand binding, mouse urotensin mUR2 membranes, FlashPlate, [125I]-Urotensin II", "settings": "compound at 10 μM, [125I]-Urotensin II", "how_it_was_run": "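Cloned mouse urotensin (mUR2) receptor membranes from Perkin Elmer Biosignal were immobilized in FlashPlate microplates using a proprietary coating. Each well got 19.5 μl buffer, then 0.5 μl of DMSO, reference ligand, or compound. Adding 5 μl of [125I]-Urotensin II, diluted to 5× final concentration in binding buffer, started binding. Plates were sealed with TopSeal-A and incubated 1 hour at room temperature in the dark. Wells were counted for 30 seconds each on a TopCount after a 60-second delay, and percentage inhibition was calculated.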"}, "[7]": {"target": "T7, Human neurokinin (NK1) (Homo sapiens, UniProt P25103)", "T7 construct": "purchased Perkin Elmer Biosignal", "T7 sequence (P25103 whole entry)": "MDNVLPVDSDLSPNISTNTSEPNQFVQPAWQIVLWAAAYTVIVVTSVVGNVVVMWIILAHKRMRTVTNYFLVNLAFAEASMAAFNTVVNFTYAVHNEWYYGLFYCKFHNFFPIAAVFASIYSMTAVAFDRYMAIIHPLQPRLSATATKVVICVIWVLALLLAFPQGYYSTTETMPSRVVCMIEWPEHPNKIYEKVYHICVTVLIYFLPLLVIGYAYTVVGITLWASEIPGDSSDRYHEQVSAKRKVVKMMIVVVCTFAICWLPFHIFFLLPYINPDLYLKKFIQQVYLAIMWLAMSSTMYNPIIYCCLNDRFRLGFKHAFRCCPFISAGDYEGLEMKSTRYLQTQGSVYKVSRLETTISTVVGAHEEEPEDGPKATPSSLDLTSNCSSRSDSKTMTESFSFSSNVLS", "assay": "Radioligand binding, human neurokinin NK1 membranes, filtration, [125I]-Substance P", "settings": "compound at 10 μM, [125I]-Substance P", "how_it_was_run": "as §2"}, "[8]": {"target": "T8, Human neuropeptide Y (NPY-Y1) (Homo sapiens, UniProt P25929)", "T8 construct": "purchased Perkin Elmer Biosignal", "T8 sequence (P25929 1-384)": "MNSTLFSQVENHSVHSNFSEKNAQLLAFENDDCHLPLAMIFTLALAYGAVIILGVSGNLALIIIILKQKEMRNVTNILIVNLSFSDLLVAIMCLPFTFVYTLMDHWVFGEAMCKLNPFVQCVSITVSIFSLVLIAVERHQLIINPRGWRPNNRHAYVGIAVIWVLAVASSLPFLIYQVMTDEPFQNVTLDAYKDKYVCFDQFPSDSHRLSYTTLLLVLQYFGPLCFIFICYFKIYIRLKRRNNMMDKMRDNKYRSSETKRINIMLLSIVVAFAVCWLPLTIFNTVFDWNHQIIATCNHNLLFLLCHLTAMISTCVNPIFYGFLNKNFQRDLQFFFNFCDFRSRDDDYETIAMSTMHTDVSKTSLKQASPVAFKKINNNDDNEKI", "assay": "Radioligand binding, human neuropeptide Y NPY-Y1 membranes, FlashPlate, [125I]-PYY", "settings": "compound at 10 μM, [125I]-PYY", "how_it_was_run": "as §1"}, "[9]": {"target": "T9, Human Melanocortin (MC3) (Homo sapiens, UniProt P41968)", "T9 construct": "purchased Perkin Elmer Biosignal", "T9 sequence (P41968 whole entry)": "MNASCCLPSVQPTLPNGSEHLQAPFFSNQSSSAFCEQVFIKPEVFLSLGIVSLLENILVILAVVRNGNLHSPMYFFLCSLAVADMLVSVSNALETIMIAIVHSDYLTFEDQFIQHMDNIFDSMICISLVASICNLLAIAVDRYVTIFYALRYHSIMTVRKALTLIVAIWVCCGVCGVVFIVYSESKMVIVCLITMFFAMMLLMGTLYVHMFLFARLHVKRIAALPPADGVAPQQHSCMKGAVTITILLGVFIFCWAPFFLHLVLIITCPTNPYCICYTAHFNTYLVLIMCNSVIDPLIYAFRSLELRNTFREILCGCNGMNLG", "assay": "Radioligand binding, human melanocortin MC3 membranes, FlashPlate, [125I]-NDP-αMSH", "settings": "compound at 10 μM, [125I]-NDP-αMSH", "how_it_was_run": "as §1"}, "[10]": {"target": "T10, Human μ-opioid (MOP) (Homo sapiens, UniProt P35372)", "T10 construct": "purchased Perkin Elmer Biosignal", "T10 sequence (P35372 whole entry)": "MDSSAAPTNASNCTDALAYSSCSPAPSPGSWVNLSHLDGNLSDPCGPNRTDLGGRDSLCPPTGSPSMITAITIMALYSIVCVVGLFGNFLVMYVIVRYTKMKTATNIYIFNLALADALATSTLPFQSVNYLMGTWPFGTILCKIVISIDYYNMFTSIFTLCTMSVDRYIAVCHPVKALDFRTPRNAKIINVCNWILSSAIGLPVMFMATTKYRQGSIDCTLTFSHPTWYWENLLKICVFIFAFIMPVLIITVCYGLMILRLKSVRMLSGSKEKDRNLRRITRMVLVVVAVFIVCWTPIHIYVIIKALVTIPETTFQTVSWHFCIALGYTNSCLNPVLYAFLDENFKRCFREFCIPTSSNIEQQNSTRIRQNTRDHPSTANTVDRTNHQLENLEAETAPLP", "assay": "Radioligand binding, human μ-opioid (MOP) membranes, FlashPlate, [3H]-Naloxone", "settings": "compound at 10 μM, [3H]-Naloxone", "how_it_was_run": "as §1"}, "[11]": {"target": "T11, Human melanocortin (MC5) (Homo sapiens, UniProt P33032)", "T11 construct": "purchased Perkin Elmer Biosignal", "T11 sequence (P33032 whole entry)": "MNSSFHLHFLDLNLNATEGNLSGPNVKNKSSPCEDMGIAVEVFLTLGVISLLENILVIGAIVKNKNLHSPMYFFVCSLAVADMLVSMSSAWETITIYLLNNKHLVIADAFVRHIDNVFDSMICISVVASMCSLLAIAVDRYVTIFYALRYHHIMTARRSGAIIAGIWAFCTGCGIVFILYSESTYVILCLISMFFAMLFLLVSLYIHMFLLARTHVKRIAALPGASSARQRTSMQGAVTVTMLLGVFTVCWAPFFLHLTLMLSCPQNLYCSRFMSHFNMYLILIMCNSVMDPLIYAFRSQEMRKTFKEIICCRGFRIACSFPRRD", "assay": "Radioligand binding, human melanocortin MC5 membranes, FlashPlate, [125I]-NDP-αMSH", "settings": "compound at 10 μM, [125I]-NDP-αMSH", "how_it_was_run": "as §1"}},
  "data": [
    {"smiles": "CO[C@H]1[C@H](O)[C@@H](COCc2cccc(O)c2)OC(OCCc2ccccc2)[C@@H]1NC(=O)CCCNC(=N)N", "note": "(stereo partly drawn) [compound 161]", "values": [
      {"measurement": "A1 radioligand binding, percentage inhibition", "setting": "[1]", "result": "− (“−” indicates less than 50% inhibition at 10 μM)"},
      {"measurement": "A10 radioligand binding, percentage inhibition", "setting": "[2]", "result": "− (“−” indicates less than 50% inhibition at 10 μM)"},
      {"measurement": "A6 radioligand binding, percentage inhibition", "setting": "[3]; [125I]-S36057", "result": "− (“−” indicates less than 50% inhibition at 10 μM)"},
      {"measurement": "A2 radioligand binding, percentage inhibition", "setting": "[4]", "result": "− (“−” indicates less than 50% inhibition at 10 μM)"},
      {"measurement": "A4 radioligand binding, percentage inhibition", "setting": "[5]", "result": "− (“−” indicates less than 50% inhibition at 10 μM)"},
      {"measurement": "A11 radioligand binding, percentage inhibition", "setting": "[6]", "result": "− (“−” indicates less than 50% inhibition at 10 μM)"},
      {"measurement": "A8 radioligand binding, percentage inhibition", "setting": "[7]", "result": "+ (“+” indicates greater than 50% inhibition at 10 μM)"},
      {"measurement": "A9 radioligand binding, percentage inhibition", "setting": "[8]", "result": "− (“−” indicates less than 50% inhibition at 10 μM)"},
      {"measurement": "A3 radioligand binding, percentage inhibition", "setting": "[9]", "result": "− (“−” indicates less than 50% inhibition at 10 μM)"},
      {"measurement": "A7 radioligand binding, percentage inhibition", "setting": "[10]", "result": "− (“−” indicates less than 50% inhibition at 10 μM)"},
      {"measurement": "A5 radioligand binding, percentage inhibition", "setting": "[11]", "result": "− (“−” indicates less than 50% inhibition at 10 μM)"}
    ]},
    {"smiles": "NCCCC(=O)NC1C(OCc2ccc(Cl)cc2)OC(COCc2ccc3ccccc3c2)C(O)C1OCc1ccc2ccccc2c1", "note": "(single isomer, unassigned) [compound 496]", "values": [
      {"measurement": "A1: inhibition of radioligand binding, human δ-opioid (DOP)", "setting": "[1]", "result": "− (“−” indicates less than 50% inhibition at 10 μM)"},
      {"measurement": "A10: inhibition of radioligand binding, human opioid (ORL1)", "setting": "[2]", "result": "+ (“+” indicates greater than 50% inhibition at 10 μM)"},
      {"measurement": "A6: inhibition of radioligand binding, human melanin-concentrating hormone (MCH1)", "setting": "[3]; [125I]-S36057", "result": "+ (“+” indicates greater than 50% inhibition at 10 μM)"},
      {"measurement": "A2: inhibition of radioligand binding, human κ-opioid (KOP)", "setting": "[4]", "result": "− (“−” indicates less than 50% inhibition at 10 μM)"},
      {"measurement": "A4: inhibition of radioligand binding, human melanocortin (MC4)", "setting": "[5]", "result": "+ (“+” indicates greater than 50% inhibition at 10 μM)"},
      {"measurement": "A11: inhibition of radioligand binding, mouse urotensin (mUR2)", "setting": "[6]", "result": "− (“−” indicates less than 50% inhibition at 10 μM)"},
      {"measurement": "A8: inhibition of radioligand binding, human neurokinin (NK1)", "setting": "[7]", "result": "+ (“+” indicates greater than 50% inhibition at 10 μM)"},
      {"measurement": "A9: inhibition of radioligand binding, human neuropeptide Y (NPY-Y1)", "setting": "[8]", "result": "− (“−” indicates less than 50% inhibition at 10 μM)"},
      {"measurement": "A3: inhibition of radioligand binding, human melanocortin (MC3)", "setting": "[9]", "result": "+ (“+” indicates greater than 50% inhibition at 10 μM)"},
      {"measurement": "A7: inhibition of radioligand binding, human μ-opioid (MOP)", "setting": "[10]", "result": "+ (“+” indicates greater than 50% inhibition at 10 μM)"},
      {"measurement": "A5: inhibition of radioligand binding, human melanocortin (MC5)", "setting": "[11]", "result": "+ (“+” indicates greater than 50% inhibition at 10 μM)"}
    ]},
    {"smiles": "CSC1O[C@H](COCc2ccc(-c3ccccc3)cc2)[C@@H](O)[C@@H](OCc2ccc(Cl)cc2)[C@H]1NC(=O)CCNC(=N)N", "note": "(stereo partly drawn) [compound 277]", "values": [
      {"measurement": "A1: inhibition of radioligand binding", "setting": "[1]; FlashPlate", "result": "− (“−” indicates less than 50% inhibition at 10 μM)"},
      {"measurement": "A10: inhibition of radioligand binding", "setting": "[2]; FlashPlate", "result": "− (“−” indicates less than 50% inhibition at 10 μM)"},
      {"measurement": "A6: inhibition of radioligand binding", "setting": "[3]; [125I]-S36057, FlashPlate", "result": "− (“−” indicates less than 50% inhibition at 10 μM)"},
      {"measurement": "A2: inhibition of radioligand binding", "setting": "[4]; filtration", "result": "− (“−” indicates less than 50% inhibition at 10 μM)"},
      {"measurement": "A4: inhibition of radioligand binding", "setting": "[5]; FlashPlate", "result": "− (“−” indicates less than 50% inhibition at 10 μM)"},
      {"measurement": "A11: inhibition of radioligand binding", "setting": "[6]; FlashPlate", "result": "− (“−” indicates less than 50% inhibition at 10 μM)"},
      {"measurement": "A8: inhibition of radioligand binding", "setting": "[7]; filtration", "result": "+ (“+” indicates greater than 50% inhibition at 10 μM)"},
      {"measurement": "A9: inhibition of radioligand binding", "setting": "[8]; FlashPlate", "result": "− (“−” indicates less than 50% inhibition at 10 μM)"},
      {"measurement": "A3: inhibition of radioligand binding", "setting": "[9]; FlashPlate", "result": "+ (“+” indicates greater than 50% inhibition at 10 μM)"},
      {"measurement": "A7: inhibition of radioligand binding", "setting": "[10]; FlashPlate", "result": "− (“−” indicates less than 50% inhibition at 10 μM)"},
      {"measurement": "A5: inhibition of radioligand binding", "setting": "[11]; FlashPlate", "result": "− (“−” indicates less than 50% inhibition at 10 μM)"}
    ]}
  ]
}
